Results published in patent US11161912B2, “Heparanase-neutralizing monoclonal antibodies” (Technion Research & Development Foundation Limited, priority 2015, dated 2021).

Assays:
[1] = system: Ramos lymphoma cells; experiment: Subcutaneous Ramos lymphoma xenograft in NOD/SCID mice; format: in vivo, human; conditions: PG545 IP 20 mg/kg once weekly from one day after inoculation
Experimental: (§1) Lymphoma cells were also inoculated subcutaneously at the right flank of 6-weeks-old NOD/SCID mice (human cell lines) or C57BL/6 mice (E1-4 mouse lymphoma cells) (n=7). Mice were treated with heparanase inhibitors (PG545; SST0001) or neutralizing antibodies and xenografts size was determined by externally measuring the tumors in 2 dimensions using a caliper. At the end of the experiment, mice were sacrificed; tumor xenografts were removed, weighed and fixed for histological and immunohistochemical analyses (Weissmann et al, 2016, Proc Natl Acad Sci USA 113:704-709). […]
(§2) A. Specimens of human follicular (FIG. 1A, left panel) and diffuse (FIG. 1A, right panel) B-cell lymphomas were subjected for immunostaining applying anti-heparanase antibody. […] Lysates of Raji cells and extracts of tumor xenografts produced by Raji cells were applied onto dishes coated with sulfate-labelled ECM and heparanase enzymatic activity was determined as described (Vlodaysky I, et al. 1999, Nature Med 5(7):793-802). […] Extracts of control (Con) and PG545-treated tumor xenografts produced by Raji cells were applied onto dishes coated with sulfate labelled ECM and heparanase activity was determined as above (lower panel).

[2] = system: Raji lymphoma cells; experiment: Subcutaneous Raji lymphoma xenograft in NOD/SCID mice; format: in vivo, human
Experimental: as §1, §2

[3] = system: Daudi lymphoma cells; experiment: Subcutaneous Daudi lymphoma xenograft in NOD/SCID mice; format: in vivo, human; conditions: PG545 IP 20 mg/kg once weekly from one day after inoculation
Experimental: as §1, §2

[4] = system: OCI-LY-19 lymphoma cells; experiment: Subcutaneous OCI-LY-19 lymphoma xenograft in NOD/SCID mice; format: in vivo, human; conditions: OCI-LY-19, PG545 IP 20 mg/kg once weekly from one day after inoculation
Experimental: as §1, §2

[5] = system: SU-DHL-6 lymphoma cells; experiment: Subcutaneous SU-DHL-6 lymphoma xenograft in mice; format: in vivo, human; conditions: SU-DHL-6, PG545 IP 20 mg/kg once weekly from one day after inoculation
Experimental: The indicated lymphoma cells (5×10^6) were implanted subcutaneously in NOD/SCID mice (n=7) and mice were administered with PG545 (IP, 20 mg/kg, once weekly, starting one day after cell inoculation), or control vehicle (PBS; Con). At termination, tumors were removed, weighted and embedded in paraffin for histological and immunohistochemical analyses. Mice were similarly inoculated with the indicated lymphoma cells and were treated with the indicated concentration of PG545 (mg/kg once a week; FIG. 1C) or were treated with PG545 (20 mg/kg once a week) once the tumors became palpable (FIG. 1D). Shown are average (±SE) tumor weight (gr.).

[6] = system: human lymphoma cell lines; experiment: Subcutaneous human lymphoma xenografts, dose response and treatment of palpable tumors (cell lines only 'indicated'); format: in vivo
Experimental: as §1, §2

[7] = system: E1-4 mouse lymphoma cells; experiment: Subcutaneous E1-4 mouse lymphoma tumors; format: in vivo; conditions: E1-4 cells lacking heparanase activity
Experimental: (§3) Lymphoma cells were also inoculated subcutaneously at the right flank of 6-weeks-old NOD/SCID mice (human cell lines) or C57BL/6 mice (E1-4 mouse lymphoma cells) (n=7). Mice were treated with heparanase inhibitors (PG545; SST0001) or neutralizing antibodies and xenografts size was determined by externally measuring the tumors in 2 dimensions using a caliper. At the end of the experiment, mice were sacrificed; tumor xenografts were removed, weighed and fixed for histological and immunohistochemical analyses (Weissmann et al, 2016, Proc Natl Acad Sci USA 113:704-709). ESb mouse T-lymphoma cells (5×10^5) were similarly inoculated subcutaneously into SCID mice and spontaneous metastasis to the liver (Vlodaysky et al., 1983, Cancer Res 43:2704-2711) was examined after 3 weeks of treatment with PG545 or the neutralizing mAb, as described above. All animal experiments were approved by the Animal Care Committee of the Technion, Haifa, Israel.

[8] = system: ESb mouse T-lymphoma cells; experiment: ESb T-lymphoma spontaneous liver metastasis and survival; format: in vivo; conditions: PG545 20 mg/kg once a week
Experimental: as §3
FIG. 3A. HEK 293 cells were incubated with latent 65 kDa (upper panel) or GS3 constitutively active heparanase (1 μg/ml; third panel) and the indicated mAbs (10 μg/ml). The cell medium was aspirated at the time designated and cell lysates were subjected to immunoblotting applying anti-heparanase antibody (upper and third panels). […] Heparanase-transfected 293 cells were grown with control mouse IgM or mAb 9E8 for two days. Cells were then fixed with methanol and subjected to immunofluorescent staining applying anti heparanase antibody (second panel) or lysed and subjected to immunoblotting applying anti-heparanase antibody (fourth panel). Purified recombinant active heparanase (200 ng) was pre-incubated with control mouse IgM ( ? ), mAb 8A5 ( ? ), mAb 9E8 ( ? ), all at 2 μg/ml, for 2 h in serum-free RPMI medium on ice. The mixture was then applied onto ^35S-labeled ECM-coated dishes and heparanase activity was determined as described above (lower panel). FIG. 3B, C. […] Quantification of the extent of CD45 staining is shown graphically in the lower panel. […]

[9] = system: Raji-luciferase cells; experiment: Raji-luciferase lymphoma, tail vein inoculation, bone marrow growth by IVIS imaging; format: in vivo, human; conditions: PG545 20 mg/kg once a week
Experimental: Tumorigenicity. Luciferase-labelled CAG myeloma (5×10^6) or Raji lymphoma (1×10^6) cells were injected into the tail vein of NOD/SCID mice (n=5). Mice were treated with PG545 (20 mg/kg, once weekly), mAb 9E8 (600 μg/mouse) every other day starting one day following cell inoculation and tumor growth was examined by IVIS imaging. At termination, mice were sacrificed, the backbones were excised, fixed in formalin and following de-calcification with 10% EDTA solution were embedded in paraffin and subjected to histological and immunohistochemical analyses essentially as described (Weissmann et al, 2016, Proc Natl Acad Sci USA 113:704-709). Dose of 25-30 mg/kg (i.e., 500-600 μg mAb/mouse) is typical in cancer restraining experiments (Van Looy T, et al. 2015, Transl Oncol 8(2):112-118).
IVIS imaging. Bioluminescent imaging of the luciferase-expressing tumors was performed with a highly sensitive, cooled charge coupled device (CCD) camera mounted in a light-tight specimen box (IVIS; Xenogen Corp., Waltham, Mass.). Briefly, mice were injected intraperitoneally with D-luciferin substrate at 150 mg/kg, anesthetized and placed onto a stage inside the light-tight camera box, with continuous exposure to isoflurane (EZAnesthesia, Palmer, Pa.). Light emitted from the bioluminescent cells was detected by the IVIS camera system with images quantified for tumor burden using a log-scale color range set at 5×10^4 to 1×10^7 and measurement of total photon counts per second (PPS) using Living Image software (Xenogen) (Weissmann et al, 2016, Proc Natl Acad Sci USA 113:704-709).
FIG. 4A. Raji-luciferase cells (1×10^6) were injected into the tail vein of NOD/SCID mice (n=5). Mice were treated with PG545 (20 mg/kg once a week) starting one day after cell inoculation and IVIS imaging was applied to quantify tumor load. […] NOD/SCID mice (n=5) were inoculated (iv) with Raji-luciferase cells and mice were treated with mAb 9E8 (600 μg/mouse every other day) (FIG. 4C) and tumor growth was evaluated by IVIS imaging (left panels). Quantification of luciferase signals is shown graphically in the right lower panel.

[10] = molecular target: T1, heparanase (Homo sapiens, UniProt Q9Y251); conditions: prior art; cited from earlier work
T1 sequence (Q9Y251 36-543): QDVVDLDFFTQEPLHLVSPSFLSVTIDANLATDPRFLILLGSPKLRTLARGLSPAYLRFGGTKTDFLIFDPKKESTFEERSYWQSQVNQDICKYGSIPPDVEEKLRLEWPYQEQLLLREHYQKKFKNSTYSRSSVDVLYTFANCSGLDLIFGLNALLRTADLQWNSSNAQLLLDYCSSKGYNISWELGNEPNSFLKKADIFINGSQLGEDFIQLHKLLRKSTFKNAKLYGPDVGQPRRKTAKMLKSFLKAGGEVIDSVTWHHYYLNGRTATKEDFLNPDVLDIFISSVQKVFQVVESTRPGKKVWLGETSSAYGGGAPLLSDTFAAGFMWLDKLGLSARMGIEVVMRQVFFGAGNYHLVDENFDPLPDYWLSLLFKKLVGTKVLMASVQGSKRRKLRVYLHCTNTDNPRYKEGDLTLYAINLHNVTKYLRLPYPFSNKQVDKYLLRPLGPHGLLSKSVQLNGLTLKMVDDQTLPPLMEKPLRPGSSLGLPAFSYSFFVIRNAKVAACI

[11] = prior art; cited from earlier work

Compound | growth of tumor xenografts (tumor weight) [1] | growth of tumor xenografts (tumor weight) ([2]; Raji, PG545 IP 20 mg/kg once weekly from one day after inoculation) | heparanase activity in tumor xenograft extracts ([2]; extracts of Raji xenografts on sulfate labelled ECM) | growth of tumor xenografts (tumor weight) [3] | growth of tumor xenografts (tumor weight) [4] | growth of tumor xenografts (tumor weight) [5] | inhibition of tumor xenograft growth when treated once lesions became palpable ([6]; PG545 20 mg/kg once a week (FIG. 1D)) | dose dependence of xenograft growth attenuation ([6]; indicated concentrations mg/kg once a week (FIG. 1C)) | growth of tumor xenografts [7] | survival of mice ([8]; ESb s.c. in NOD/SCID mice) | liver metastasis ([8]; ESb) | blood vessel density (CD31) in bone marrow [9] | expansion of Raji-luciferase cells in the bone marrow ([9]; IVIS) | inhibition of heparanase activity [10] | interaction with heparin and HS [11]
CC(C)CCC[C@@H](C)[C@H]1CC[C@H]2[C@@H]3CC[C@H]4C[C@@H](O[C@@H]5O[C@H](COS(=O)(=O)O)[C@@H](O[C@H]6O[C@H](COS(=O)(=O)O)[C@@H](O[C@H]7O[C@H](COS(=O)(=O)O)[C@@H](O[C@H]8O[C@H](COS(=O)(=O)O)[C@@H](OS(=O)(=O)O)[C@H](OS(=O)(=O)O)[C@H]8OS(=O)(=O)O)[C@H](OS(=O)(=O)O)[C@H]7OS(=O)(=O)O)[C@H](OS(=O)(=O)O)[C@H]6OS(=O)(=O)O)[C@H](OS(=O)(=O)O)[C@H]5OS(=O)(=O)O)CC[C@]4(C)[C@H]3CC[C@]12C [PG545] | markedly attenuated | markedly attenuated | inhibits heparanase activity | markedly attenuated | markedly attenuated | markedly attenuated | significant inhibition | dose-dependent manner | not inhibited | prolonged | reduced liver metastasis | decreased blood vessel density | markedly reduced | – | –
KKFKNSTYSRSSVD [KKDC] | – | – | – | – | – | – | – | – | – | – | – | – | – | inhibits heparanase enzymatic activity | high affinity
